Data published in US8283465B2, “Triazolopyridine compound, and action thereof as prolyl hydroxylase inhibitor or erythropoietin production-inducing agent” (Japan Tobacco Inc., priority 2009, dated 2012).
Where a name gives a salt, the structure may show the parent alone.

Key:
human PHD2 = biological target: T1, human PHD2 (Homo sapiens, UniProt Q9GZT9); assay: Measurement of human PHD inhibitory activity (TR-FRET, hydroxylation of HIF-1α partial peptide); format: biochemical; details: human PHD2 enzyme 1 nM, 25° C. 30 min, values consisting solely of numbers; read-out: IC50 (μM) in vitro, human PHD inhibitory activity
T1 construct: made in house; host or cells: Sf9 insect cells (baculovirus, pVL1393 vector)
T1 sequence (Q9GZT9 whole entry): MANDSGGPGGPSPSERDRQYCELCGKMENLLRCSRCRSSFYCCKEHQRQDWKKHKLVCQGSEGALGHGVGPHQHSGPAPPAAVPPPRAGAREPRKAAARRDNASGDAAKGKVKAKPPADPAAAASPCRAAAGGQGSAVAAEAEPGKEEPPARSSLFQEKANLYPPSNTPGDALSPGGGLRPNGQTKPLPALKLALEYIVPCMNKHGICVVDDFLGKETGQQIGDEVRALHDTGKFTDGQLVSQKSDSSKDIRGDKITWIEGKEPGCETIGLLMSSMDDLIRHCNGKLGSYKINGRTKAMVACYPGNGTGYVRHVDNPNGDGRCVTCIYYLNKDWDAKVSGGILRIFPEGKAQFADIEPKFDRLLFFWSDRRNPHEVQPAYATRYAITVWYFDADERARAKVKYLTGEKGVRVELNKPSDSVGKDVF
Protocol: Human PHD2 was expressed in insect cell (Sf9 cell). […] The vector and baculovirus were cotransfected into Sf9, and human PHD2 expression baculovirus was isolated in Sf9. By using the virus, human PHD2-expressed cell was prepared. […] The cell lysate was flowed into a column filled with ANTI-FLAG M2 Affinity Gel Freezer Safe (SIGMA), washed, and the N-terminal FLAG-tag-added human PHD2 was eluted and collected.
VBC complex (VHL/Elongin B/Elongin C) was expressed in Escherichia coli (BL21(DE3)). […] After these expression vectors were transfected into Escherichia coli (BL21(DE3)), Escherichia coli was cultured at 37° C. in the medium containing IPTG. The collected Escherichia coli was disrupted by sonication and flowed into a column filled with Ni-NTA superflow (QIAGEN), washed, and the product was eluted and collected. The eluate was flowed into a column filled with Glutathione Sepharose 4B, washed, and the product was eluted and collected. […]
As for human PHD2 enzyme activity, hydroxylation of proline residue contained in the 19 residues of the partial peptide based on the sequence of HIF-1α as a substrate was measured by TR-FRET (Time-Resolved Fluorescence Resonance Energy Transfer) method.
A test compound and a substrate solution were added to a 96-well plate. The reaction was started by addition of a human PHD2 enzyme solution (final concentration 1 nM) to the reaction system. After incubation at 25° C. for 30 min, a stop solution containing EDTA was added, and a VBC complex solution containing europium (Eu) and Xlent was added, and the amount of hydroxylated proline residue was quantified by time-resolved fluorescence spectroscopy. The time-resolved fluorescence in each well was measured, and the human PHD inhibitory activity (%) of the test compound was calculated based on the values of enzyme non-addition well and test compound non-addition well.

[1] = test system: human EPO production, Hep3B cells; assay: Human EPO production activity in Hep3B cells (EPO-ELISA of culture supernatant); format: cell-based; details: for EC50: Homo sapiens, 24 hr incubation, values consisting solely of numbers, read-out: EC50 (μM) in vitro, human EPO production activity; for production activity (%) at 30 μM in vitro, human EPO: 24 hr, values containing %, relative to maximum production
Protocol: The activity of the test compound on human EPO production was measured using Hep3B (AMC) established from human liver-derived cell line.
Hep3B cells were cultured in Eagle-MEM medium containing 10% fetal bovine serum, and the test compound was diluted with dimethyl sulfoxide (DMSO).
Hep3B cells were cultured in a 96-well plate, and a test compound was added at each concentration 24 hr later. After incubation at 37° C. for 24 hr, the culture supernatant was collected. The concentration of human EPO produced in the culture supernatant was measured using a human EPO-ELISA kit (manufactured by StemCell Technologies, 01630) according to the manufacturer's explanation, and the human EPO production activity (%) of the test compound was calculated based on the maximum value of production under the above conditions and the value without addition of the test compound. […] In these Tables, the values consisting solely of numbers show EC50 (μM) and those containing % show human EPO production activity (%) at […].

IC50 (human PHD2) [µM] | EC50 [1] [µM] | SMILES | production activity (%) at 30 μM in vitro, human EPO [1] [%]
0.23 | 5.1 | O=C(O)CNC(=O)c1c(O)cc(CCc2ccc(Cl)cc2)n2ncnc12 [Example 14, ({5-[2-(4-chlorophenyl)ethyl]-7-hydroxy[1,2,4]triazolo[1,5-a]pyridine-8-carbonyl}amino)acetic acid hydrochloride] | –
1.8 | 29.1 | O=C(O)CNC(=O)c1c(O)cc(CCc2ccccc2)n2nc(C3CC3)nc12 [Example 15, [(2-cyclopropyl-7-hydroxy-5-phenethyl[1,2,4]triazolo[1,5-a]pyridine-8-carbonyl)amino]acetic acid hydrochloride] | –
0.32 | 7 | O=C(O)CNC(=O)c1c(O)cc(CCc2ccc(C(F)(F)F)cc2)n2ncnc12 [Example 16, ({7-hydroxy-5-[2-(4-trifluoromethyl-phenyl)ethyl][1,2,4-]triazolo[1,5-a]pyridine-8-carbonyl}amino)acetic acid hydrochloride] | –
0.48 | 6.1 | CC(C)CCc1cc(O)c(C(=O)NCC(=O)O)c2ncnn12 [Example 18, {[7-hydroxy-5-(3-methylbutyl)[1,2,4]triazolo[1,5-a]pyridine-8-carbonyl]amino}acetic acid hydrochloride] | –
0.26 | 6.6 | O=C(O)CNC(=O)c1c(O)cc(CCc2cc(F)cc(F)c2)n2ncnc12 [Example 19, ({5-[2-(3,5-difluorophenyl)ethyl]-7-hydroxy[1,2,4]triazolo[1,5-a]pyridine-8-carbonyl}amino)acetic acid hydrochloride] | –
0.59 | 6.6 | O=C(O)CNC(=O)c1c(O)cc(CC2CCCC2)n2ncnc12 [Example 20, [(5-cyclopentylmethyl-7-hydroxy[1,2,4]triazolo[1,5-a]pyridin-8-carbonyl)amino]acetic acid hydrochloride] | –
0.25 | 12 | O=C(O)CNC(=O)c1c(O)cc(-c2cc(F)cc(F)c2)n2ncnc12 [Example 21, {[5-(3,5-difluorophenyl)-7-hydroxy[1,2,4]triazolo[1,5-a]pyridine-8-carbonyl]amino}acetic acid] | –
0.19 | 7.8 | O=C(O)CNC(=O)c1c(O)cc(-c2ccc(F)c(Cl)c2)n2ncnc12 [Example 23, {[5-(3-chloro-4-fluorophenyl)-7-hydroxy[1,2,4]triazolo[1,5-a]pyridine-8-carbonyl]amino}acetic acid hydrochloride] | –
0.57 | 5.4 | CC(C)(C)CCc1cc(O)c(C(=O)NCC(=O)O)c2ncnn12 [Example 24, {[5-(3,3-dimethylbutyl)-7-hydroxy[1,2,4]triazolo[1,5-a]pyridine-8-carbonyl]amino}acetic acid hydrochloride] | –
0.25 | 14.1 | O=C(O)CNC(=O)c1c(O)cc(-c2ccc(F)c(F)c2)n2ncnc12 [Example 25, {[5-(3,4-difluorophenyl)-7-hydroxy[1,2,4]triazolo[1,5-a]pyridine-8-carbonyl]amino}acetic acid hydrochloride] | –
0.33 | 7.5 | Cc1ccc(-c2cc(O)c(C(=O)NCC(=O)O)c3ncnn23)cc1 [Example 26, {[7-hydroxy-5-(p-tolyl)[1,2,4]triazolo[1,5-a]pyridine-8-carbonyl]amino}acetic acid hydrochloride] | –
1.38 | 13.9 | O=C(O)CNC(=O)c1c(O)cc(CC2CCCCC2)n2ncnc12 [Example 28, [(5-cyclohexylmethyl-7-hydroxy[1,2,4]triazolo[1,5-a]pyridine-8-carbonyl)amino]acetic acid hydrochloride] | –
0.92 | 11.3 | O=C(O)CNC(=O)c1c(O)cc(CCCc2ccccc2)n2ncnc12 [Example 29, {[7-hydroxy-5-(3-phenylpropyl)[1,2,4]triazolo[1,5-a]pyridine-8-carbonyl]amino}acetic acid] | –
0.98 | 15.4 | O=C(O)CNC(=O)c1c(O)cc(C2CCCC2)n2ncnc12 [Example 30, [(5-cyclopentyl-7-hydroxy[1,2,4]triazolo[1,5-a]pyridine-8-carbonyl)amino]acetic acid hydrochloride] | –
0.8 | 12.1 | O=C(O)CNC(=O)c1c(O)cc(-c2cc(F)cc(C(F)(F)F)c2)n2ncnc12 [Example 31, {[5-(3-fluoro-5-trifluoromethyl-phenyl)-7-hydroxy[1,2,4]triazolo[1,5-a]pyridine-8-carbonyl]amino}acetic acid hydrochloride] | –
0.38 | 15.6 | O=C(O)CNC(=O)c1c(O)cc(-c2ccc(F)cc2)n2ncnc12 [Example 32, {[5-(4-fluorophenyl)-7-hydroxy[1,2,4]triazolo[1,5-a]pyridine-8-carbonyl]ammino}acetic acid hydrochloride] | –
0.46 | 10.1 | O=C(O)CNC(=O)c1c(O)cc(-c2cccc(C(F)(F)F)c2)n2ncnc12 [Example 33, {[7-hydroxy-5-(3-trifluoromethyl-phhenyl)[1,2,4]triazolo[1,5-a]pyridine-8-carbonyl]ammino}acetic acid hydrochloride] | –
0.43 | 15 | O=C(O)CNC(=O)c1c(O)cc(-c2cc(C(F)(F)F)ccc2F)n2ncnc12 [Example 34, {[5-(2-fluoro-5-trifluoromethyl-phenyl)-7-hydroxy[1,2,4]triazolo[1,5-a]pyridine-8-carbonyl]amino}acetic acid hydrochloride] | –
0.88 | – | CC(C)c1cc(O)c(C(=O)NCC(=O)O)c2ncnn12 [Example 35, [(7-hydroxy-5-isopropyl[1,2,4]triazolo[1,5-a]pyridine-8-carbonyl)amino]acetic acid hydrochloride] | 43
0.72 | 10.5 | O=C(O)CNC(=O)c1c(O)cc(-c2cc(Cl)cc(C(F)(F)F)c2)n2ncnc12 [Example 36, {[5-(3-chloro-5-trifluoromethyl-phenyl)-7-hydroxy[1,2,4]triazolo[1,5-a]pyridine-8-carbonyl]amino}acetic acid hydrochloride] | –
0.2 | – | N#Cc1cccc(-c2cc(O)c(C(=O)NCC(=O)O)c3ncnn23)c1 [Example 37, {[5-(3-cyanophenyl)-7-hydroxy[1,2,4]triazolo[1,5-a]pyridine-8-carbonyl]amino}acetic acid hydrochloride] | 11
0.59 | 8.7 | O=C(O)CNC(=O)c1c(O)cc(CCc2ccc(C3CC3)cc2)n2ncnc12 [Example 38, ({5-[2-(4-cyclopropyl-phenyl)ethyl]-7-hydroxy[1,2,4]trizazolo[1,5-a]pyridine-8-carbonyl}amino)acetic acid hydrochloride] | –
1.25 | 22.3 | CC(C)(C)Cc1cc(O)c(C(=O)NCC(=O)O)c2ncnn12 [Example 39, {[5-(2,2-dimethylpropyl)-7-hydroxy[1,2,4]triazolo[1,5-a]pyridine-8-carbonyl]amino}acetic acid hydrochloride] | –
0.87 | 17.7 | CCC(CC)c1cc(O)c(C(=O)NCC(=O)O)c2ncnn12 [Example 40, {[5-(1-ethylpropyl)-7-hydroxy[1,2,4]triazolo[1,5-a]pyridine-8-carbonyl]amino}acetic acid hydrochloride] | –
0.26 | 9.1 | O=C(O)CNC(=O)c1c(O)cc(-c2cc(F)cc(Cl)c2)n2ncnc12 [Example 41, {[5-(3-chloro-5-fluorophenyl)-7-hydroxy[1,2,4]triazolo[1,5-a]pyridine-8-carbonyl]amino}acetic acid hydrochloride] | –
0.24 | 14.2 | O=C(O)CNC(=O)c1c(O)cc(-c2cccc(F)c2)n2ncnc12 [Example 42, {[5-(3-fluorophenyl)-7-hydroxy[1,2,4]triazolo[1,5-a]pyridine-8-carbonyl]amino}acetic acid hydrochloride] | –
0.93 | 23.6 | CC(C)Cc1cc(O)c(C(=O)NCC(=O)O)c2ncnn12 [Example 43, [(7-hydroxy-5-isobutyl[1,2,4]triazolo[1,5-a]pyridine-8-carbonyl)amino]acetic acid] | –
